From patent US9765105B2, “Macrolide compound” (Pulike Biological Engineering, Inc., priority 2013, dated 2017)

Assays:
Assay in all cases: in vitro susceptibility, MIC by mini broth dilution
Assay type in all cases: cell-based
[1] = tested on: Staphylococcus aureus CVCC26003; details: strain CVCC26003
Procedure, shortened: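 MICs were determined by mini broth dilution under NCCLS standards in CAMHB, using revived S. aureus CVCC26003 subcultured 20 h at 35° C. Compounds were two-fold serially diluted in DMSO across 11 wells, with duplicate rows. Bacterial suspension was diluted 1:200 in medium before inoculation.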

[2] = tested on: Haemophilus parasuis
Procedure, shortened: (§1)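 Bacteria were revived from −20° C stocks and streaked twice on solid medium, each time grown 20 h at 35° C. Compounds were double-diluted in DMSO across 11 wells and tested in two parallel rows. The bacterial suspension was diluted 1:200 with liquid medium before MIC determination by mini broth dilution.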

[3] = tested on: Pasteurella multocida CVCC399; details: strain CVCC399
Procedure, shortened: as §1

[4] = tested on: Streptococcus equines CVCC556; details: strain CVCC556
Procedure, shortened: as §1

[5] = tested on: Actinobacillus pleuropneumoniae CVCC262; details: strain CVCC262
Procedure, shortened: as §1

Row | SMILES | MIC values, Staphylococcus aureus CVCC26003 [1] [ug/mi] | MIC values, Haemophilus parasuis [2] [ug/mi] | MIC values, Pasteurella multocida CVCC399 [3] [ug/mi] | MIC values, Streptococcus equines CVCC556 [4] [ug/mi] | MIC values, Actinobacillus pleuropneumoniae CVCC262 [5]
1 | CC[C@H]1OC(=O)[C@H](C)[C@@H](O[C@H]2C[C@@](C)(OC)[C@](O)(CNC(C)C(C)(C)C)[C@H](C)O2)[C@H](C)[C@@H](O[C@@H]2O[C@H](C)C[C@H](N(C)C)[C@H]2O)[C@](C)(O)C[C@@H](C)NC[C@H](C)[C@@H](O)[C@]1(C)O (stereo partly drawn) [syzx-100, (2R,3S,4R,5S,8R,10R,11R,12S,13S,14R)-13-[(2,6-dideoxy-3-C-methyl-3-O-methyl-4-C-[(1,2,2-trimethyl-propylamino)-methyl]-α-L-ribopyranosyl)oxy]-2-ethyl-3,4,10-trihydroxy-3,5,8,10,12,14-hexamethyl-11-[[3,4,6-trideoxy-3-(dimethylamino)-β-D-xylo-hexopyranosy]oxy]-1-oxa-7-azacyclopentadecan-15-one] | 1 | 2 | 0.5 | 2 | 1 ug/mi
2 | CCCCNC[C@]1(O)[C@H](C)O[C@@H](O[C@H]2[C@H](C)[C@@H](O[C@@H]3O[C@H](C)C[C@H](N(C)C)[C@H]3O)[C@](C)(O)C[C@@H](C)N(CCC)C[C@H](C)[C@@H](O)[C@](C)(O)[C@@H](CC)OC(=O)[C@@H]2C)C[C@@]1(C)OC [syzx-102] | 0.25 | 0.25 | 0.5 | 0.25 | 0.25 ug/mi
3 | CCCN1C[C@H](C)[C@@H](O)[C@](C)(O)[C@@H](CC)OC(=O)[C@H](C)[C@@H](O[C@H]2C[C@@](C)(OC)[C@](O)(CN(CC)CC)[C@H](C)O2)[C@H](C)[C@@H](O[C@@H]2O[C@H](C)C[C@H](N(C)C)[C@H]2O)[C@](C)(O)C[C@H]1C [syzx-103] | 0.25 | 0.25 | 1 | 0.25 | 0,25 ug/mi
4 | CCCN1C[C@H](C)[C@@H](O)[C@](C)(O)[C@@H](CC)OC(=O)[C@H](C)[C@@H](O[C@H]2C[C@@](C)(OC)[C@](O)(CNc3ccccc3)[C@H](C)O2)[C@H](C)[C@@H](O[C@@H]2O[C@H](C)C[C@H](N(C)C)[C@H]2O)[C@](C)(O)C[C@H]1C [syzx-104] | 0.25 | 0.25 | 1 | 0.25 | 0.25 ug/mi
5 | CCCN1C[C@H](C)[C@@H](O)[C@](C)(O)[C@@H](CC)OC(=O)[C@H](C)[C@@H](O[C@H]2C[C@@](C)(OC)[C@](O)(CNCC3(C)CC(N)CC(C)(C)C3)[C@H](C)O2)[C@H](C)[C@@H](O[C@@H]2O[C@H](C)C[C@H](N(C)C)[C@H]2O)[C@](C)(O)C[C@H]1C (stereo partly shown) [syzx-106] | 2 | 0.5 | 2 | 0.25 | 0.5 ug/mi
6 | CCCN1C[C@H](C)[C@@H](O)[C@](C)(O)[C@@H](CC)OC(=O)[C@H](C)[C@@H](O[C@H]2C[C@@](C)(OC)[C@](O)(CNCc3ccc(F)cc3)[C@H](C)O2)[C@H](C)[C@@H](O[C@@H]2O[C@H](C)C[C@H](N(C)C)[C@H]2O)[C@](C)(O)C[C@H]1C [syzx-108] | 0.25 | 0.25 | 1 | 0.25 | 0.25 ug/mi
7 | CCCN1CC(C)C(O)C(C)(O)C(CC)OC(=O)C(C)C(OC2CC(C)(OC)C(O)(Cn3ccnn3)C(C)O2)C(C)C(OC2OC(C)CC(N(C)C)C2O)C(C)(O)CC1C (stereo not shown) [syzx-109] | 0.25 | 0.25 | 1 | 0.25 | 0.25 ug/mi
8 | CCCN1C[C@H](C)[C@@H](O)[C@](C)(O)[C@@H](CC)OC(=O)[C@H](C)[C@@H](O[C@H]2C[C@@](C)(OC)[C@](O)(CNCC)[C@H](C)O2)[C@H](C)[C@@H](O[C@@H]2O[C@H](C)C[C@H](N(C)C)[C@H]2O)[C@](C)(O)C[C@H]1C [syzx-110] | 0.25 | 0.25 | 0.5 | 0.25 | 0.25 ug/mi
9 | CCCN1C[C@H](C)[C@@H](O)[C@](C)(O)[C@@H](CC)OC(=O)[C@H](C)[C@@H](O[C@H]2C[C@@](C)(OC)[C@](O)(CNC(C)C)[C@H](C)O2)[C@H](C)[C@@H](O[C@@H]2O[C@H](C)C[C@H](N(C)C)[C@H]2O)[C@](C)(O)C[C@H]1C [syzx-111] | 0.25 | 0.25 | 0.5 | 0.25 | 0.25 ug/mi
10 | CCCN1C[C@H](C)[C@@H](O)[C@](C)(O)[C@@H](CC)OC(=O)[C@H](C)[C@@H](O[C@H]2C[C@@](C)(OC)[C@](O)(CNCC(C)C)[C@H](C)O2)[C@H](C)[C@@H](O[C@@H]2O[C@H](C)C[C@H](N(C)C)[C@H]2O)[C@](C)(O)C[C@H]1C [syzx-112] | 0.25 | 0.25 | 0.5 | 0.25 | 0.25 ug/mi
11 | CCCN1C[C@H](C)[C@@H](O)[C@](C)(O)[C@@H](CC)OC(=O)[C@H](C)[C@@H](O[C@H]2C[C@@](C)(OC)[C@](O)(CNc3cccc(Cl)c3)[C@H](C)O2)[C@H](C)[C@@H](O[C@@H]2O[C@H](C)C[C@H](N(C)C)[C@H]2O)[C@](C)(O)C[C@H]1C [syzx-113] | 0.25 | 0.25 | 1 | 0.25 | 0.25 ug/mi
